Measured values as given in US5171835A, “LHRH antagonists” (The Administrators of the Tulane Educational Fund, priority 1991, dated 1992).
Where two headings read alike, the source gives them in different places. Square brackets hold non-standard residues; d marks the D form. dPhe(4-Cl) = N[C@H](Cc1ccc(Cl)cc1)C(=O)O; d2Nal = N[C@H](Cc1ccc2ccccc2c1)C(=O)O; dCit = NC(=O)NCCC[C@@H](N)C(=O)O; d3Pal = N[C@H](Cc1cccnc1)C(=O)O

How the values were obtained:
[1] = cited from earlier work
LHRH = settings: prior art; cited from earlier work
[2] = system: membrane receptors of human breast cancer cells; test: Receptor binding, human breast cancer cell membranes (125I-[D-Trp6]LHRH as labelled ligand); settings: 125I-[D-Trp]6 LHRH labelled ligand
Description: Affinity of peptides to rat pituitary and human breast cancer cell membranes is determined by using labelled LHRH and [D-Trp^6 ]LHRH. The assay is carried out similarly to that described by T. Kadar et al., Proc. Natl. Acad. Sci. USA, 85, 890-894 (1988) and M. Fekete et al., Endocrinology, 124, 946-955 (1989).

[3] = system: Dunning R3327 prostate cancer; test: In vivo antitumor effect, Dunning R3327 prostate cancer in rats; parameters: species or system rat; settings: for Size of tumor, treated group: 25 μg/day, ± SD
Description: Inhibition of growth of cancerous tumors in rats with compounds of Formula I was tested as described by Szende et al. (J. Natl. Cancer Inst., 82, 513-517, 1990; Szende et al., Cancer Research), 50, 3716-3721, 1990) by A. V. Schally and T. Redding (Proc. Natl. Acad. Sci. US, 84, 7279-7282, 1987), and by E. Korkut et al. (Proc. Natl. Acad. Sci. US, accepted for publication). Peptide 8 was dissolved in 45% aqueous propylene-glycol and was administered at a dose of 25 μg/day from an ALZET minipump to male rats bearing the androgen-dependent well-differentiated R3327 Dunning rat prostate adenocarcinoma. Tumors were measured weekly with microcalipers and tumor volumes were calculated. Duration of the treatment was 8 weeks, changing the minipumps at the end of the 4th week.

LH and FSH levels = test: In vivo effect on LH and FSH levels in castrated male rats; parameters: species or system rat; settings: s.c.
Description: (d) In vivo effect on LH and FSH levels was measured as described by L. Bokser et al. (Proc. Natl. Acad. Sci. US, accepted for publication.) Castrated male rats weighing 350-410 grams anaesthetized with urethane were injected subcutaneously with Peptide 7 and 8 in doses of 1.25 μg and 5.0 μg. Blood samples were taken from the jugular vein before injection and 1, 2, 3, 4, 6, 24 and 48 hours after the administration of peptides. Control animals were injected only with saline. LH and FSH levels were determined by specific RIAs.

[4] = system: perfused rat pituitary cell system (LH response to LH-RH); test: LH-RH inhibiting activity in superfused rat pituitary cell system; assay type: cell-based
Description: Immediately after that, a mixture containing the same concentration of peptide and 3 nM LHRH is administered for 3 min. This was followed by four consecutive infusions of 3 nM LHRH for 3 min (1 ml perfusate) at 30 min intervals (30, 60, 90, 120 min). LH content of the 1 ml fractions collected is determined by radioimmunoassay (RIA).

[5] = rats bearing Dunning R3327H prostate cancer

[Ac-D-Nal(2)^1,D-Phe(4Cl)^2,D-Trp^3,D-hArg(Et)2^6,D-Ala^10 ] [Detirelix]
side effects ([1]; in vivo): hypotensive and bradycardic side effect | LHRH antagonist / ovulation inhibition potency (LHRH): powerful antagonist

Ac-[d2Nal][dPhe(4-Cl)][d3Pal]SY[dCit]LRP[dA]-NH2
side effects ([1]; prior art): no edematogenic and anaphylactoid side effects | LHRH antagonist / ovulation inhibition potency (LHRH): high inhibitory effect

Ac-D-Nal(2)-D-Phe(4Cl)-D-Pal(3)-Ser-Tyr-D-Lys[A2 pr(Ac)2 ]-Leu-Arg-Pro-D-Ala-NH2 [Peptide 8]
Affinity Constant Ka 2 [2]: 6.16 µM⁻¹ | Affinity Constant Ka 1 ([2]; NB = no binding): 1.57 nM⁻¹ | Size of tumor, treated group ([3]; week 0): 4001 ± 1617 mm^3 | Size of tumor, treated group ([3]; week 1): 5459 ± 1863 mm^3 | Size of tumor, treated group ([3]; week 2): 5892 ± 1938 mm^3 | Size of tumor, treated group ([3]; week 3): 6357 ± 2327 mm^3 | Size of tumor, treated group ([3]; week 4, p<0.05): 6237 ± 2974 mm^3 | Size of tumor, treated group ([3]; week 5, p<0.05): 7447 ± 3481 mm^3 | Size of tumor, treated group ([3]; week 6, p<0.05): 8038 ± 4374 mm^3 | Size of tumor, treated group ([3]; week 7, p<0.01): 8129 ± 3525 mm^3 | Tumor doubling time ([3]; Dunning R3327H prostate cancer, rats, control group 12 days): 42 days | body weight during the treatment [3, 5]: did not change | weight of testis, seminal vesicles and ventral prostate [3, 5]: greatly reduced | activity on LH levels forty-eight hours after injection (LH and FSH levels; dose of 1.25 μg, 48 hours, p<0.05): active | inhibition of LH levels forty-eight hours after injection (LH and FSH levels; dose of 5 μg, 48 hours, p<0.05): significant inhibition | duration of significant decrease in the LH levels (LH and FSH levels; p<0.01): more than 24 hours | % inhibition of LH response ([4]; antagonist to LH-RH ratio 1:1, 0 min): 64% | % inhibition of LH response ([4]; antagonist to LH-RH ratio 1:1, 30 min): 39% | % inhibition of LH response ([4]; antagonist to LH-RH ratio 1:1, 60 min): 27% | % inhibition of LH response ([4]; antagonist to LH-RH ratio 1:1, 90 min): 22% | % inhibition of LH response ([4]; antagonist to LH-RH ratio 3:1, 0 min): 99% | % inhibition of LH response ([4]; antagonist to LH-RH ratio 3:1, 30 min): 66% | % inhibition of LH response ([4]; antagonist to LH-RH ratio 3:1, 60 min): 47% | % inhibition of LH response ([4]; antagonist to LH-RH ratio 3:1, 90 min): 37%
